As usually defined, the MIC is the lowest concentration found to suppress growth.

In brackets after ≈: the same amount, converted by molar mass.

Data set [1] is described as follows: Antiproliferative activity against human MK1 cells by MTT assay. Conditions: read-out: ED50 (the source's name). It is filed as cell-based. (Tetrazolium assays rely on reduction of a dye to a coloured formazan, in cell work by metabolically active cells.)
The subject of data set [2] is Escherichia coli. The data set can be described thus: Antimicrobial activity against Escherichia coli DC2. It is filed as functional.
Data set [3] relates to Bacillus subtilis. The data set can be described thus: Antimicrobial activity against Bacillus subtilis Vernon. In kind it is functional.
The test system of data set [4] is Staphylococcus aureus. Put plainly: Antimicrobial activity against methicillin-resistant Staphylococcus aureus SAP0017. It is filed as functional.
Data set [5] concerns Staphylococcus aureus. The data set can be described thus: Antimicrobial activity against methicillin-sensitive Staphylococcus aureus K147. It is filed as functional.

For the compound `C=C[C@@H](O)C#CC#C[C@@H](O)/C=C\CCCCCCC` [FALCARINDIOL], the GI50 in data set [1] was 3.2 µg/mL (≈ 12.3 µM). Moreover, the MIC in data set [2] is 2.5 µg/mL (≈ 9.6 µM); in data set [3], 12.5 µg/mL (≈ 48 µM); in data set [4] it was 25 µg/mL (≈ 96 µM); in data set [5], 12.5 µg/mL (≈ 48 µM).

Source of the values: ChEMBL document CHEMBL1141830, “Stereoselective total synthesis of (3R,8S)-falcarindiol, a common polyacetylenic compound from umbellifers” (J Nat Prod, 1999).
